Tests used:
MATIN [1] = assay: Post-emergence herbicidal action; assay type: in vivo, Matricaria inodora; settings: assessed after about 3 weeks
Procedure, shortened: (§1)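 Greenhouse plants in sandy loam treated at the one-leaf stage, 2–3 weeks after sowing, by spraying WP or EC formulations as aqueous suspension/emulsion at 600–800 l/ha with 0.2% wetting agent. Visual assessment after about 3 weeks versus untreated controls, as percent action (100% = plants dead, 0% = like control).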

AMARE [2] = assay: Post-emergence herbicidal action; assay type: in vivo, Amaranthus retroflexus; settings: assessed after about 3 weeks
Procedure, shortened: as §1

SETVI [3] = assay: Pre-emergence herbicidal action; assay type: in vivo, Setaria viridis; settings: scored after 3 weeks
Procedure, shortened: (§2)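 Pre-em, sandy loam, wood-fibre pots. Spray onto cover soil: aq. suspension/emulsion of WP/EC, 600 to 800 l/ha, 0.2% wetting agent. Greenhouse, 3 wk; visual score vs untreated, 0–100%.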

ECHCG [4] = assay: Post-emergence herbicidal action; assay type: in vivo, Echinochloa crus-galli; settings: assessed after about 3 weeks
Procedure, shortened: (§3)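 Greenhouse pot test on sandy loam; plants treated at one-leaf stage, 2–3 weeks after sowing, by spraying WP or EC formulations as aqueous suspension/emulsion at 600–800 l/ha water with 0.2% wetting agent. Visual damage scored about 3 weeks later versus untreated controls (100% = dead, 0% = like control).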

VERPE = assay: Post-emergence herbicidal action; assay type: in vivo, Veronica persica; settings: 20 g/ha, assessed after about 3 weeks
Procedure, shortened: as §3

MATIN [5] = assay: Pre-emergence herbicidal action; assay type: in vivo, Matricaria inodora; settings: scored after 3 weeks
Procedure, shortened: as §2

AVEFA [6] = assay: Post-emergence herbicidal action; assay type: in vivo, Avena fatua; settings: 20 g/ha, assessed after about 3 weeks
Method: (§4) Seeds of monocotyledonous and dicotyledonous weed and crop plants are laid out in sandy loam soil in wood-fibre pots, covered with soil and cultivated in a greenhouse under good growth conditions. 2 to 3 weeks after sowing, the test plants are treated at the one-leaf stage. The compounds of the invention, formulated in the form of wettable powders (WP) or as emulsion concentrates (EC), are then sprayed onto the green parts of the plants in the form of an aqueous suspension or emulsion at a water application rate equating to 600 to 800 l/ha, with addition of 0.2% wetting agent. After the test plants have been left to stand in the greenhouse under optimal growth conditions for about 3 weeks, the action of the preparations is assessed visually in comparison to untreated controls (herbicidal action in percent (%): 100% activity=the plants have died, 0% activity=like control plants). […] The tables below illustrate, in an illustrative manner, the post-emergence herbicidal action of the compounds of the invention, the herbicidal activity being stated in percent.

ZEAMX [7] = assay: Pre-emergence damage to crop plants; assay type: in vivo, Zea mays; settings: 320 g a.i./ha, comparative experiment
Procedure, shortened: as §2

ECHCG [8] = assay: Pre-emergence herbicidal action; assay type: in vivo, Echinochloa crus-galli; settings: scored after 3 weeks
Procedure, shortened: (§5)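 Weed and crop seeds were sown in sandy loam, and WP or EC formulations were sprayed onto the covering soil at 600 to 800 l/ha water with 0.2% wetting agent. After 3 weeks in a greenhouse, damage was scored visually against untreated controls as percent activity (100% = plants dead).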

PHBPU [9] = assay: Pre-emergence herbicidal action; assay type: in vivo, Pharbitis purpurea; settings: 80 g/ha, scored after 3 weeks
From the text: (§6) Seeds of monocotyledonous and dicotyledonous weed plants and crop plants are laid out in sandy loam soil in wood-fibre pots and covered with soil. The compounds of the invention, formulated in the form of wettable powders (WP) or as emulsion concentrates (EC), are then applied to the surface of the covering soil in the form of an aqueous suspension or emulsion at a water application rate equivalent to 600 to 800 l/ha, with addition of 0.2% wetting agent. After the treatment, the pots are placed in a greenhouse and kept under good growth conditions for the trial plants. The damage to the test plants is scored visually after a test period of 3 weeks by comparison with untreated controls (herbicidal activity in percent (%): 100% activity=the plants have died, 0% activity=like control plants). […] The tables below illustrate, in an illustrative manner, the post-emergence herbicidal action of the compounds of the invention, the herbicidal activity being stated in percent.

ZEAMX [10] = assay: Post-emergence damage to crop plants; assay type: in vivo, Zea mays; settings: 80 g a.i./ha, comparative experiment
Method: as §4, with “percent. In the experiments that follow, the herbicidal action of the compounds of the invention and that of the corresponding known racemic compounds closest from WO2012126932 and WO2018202535 were compared under the above-specified conditions by the pre-emergence and post-emergence method. The example numbers given in the tables relate to the compounds disclosed in the respective documents.” for “percent.”

AVEFA [11] = assay: Pre-emergence herbicidal action; assay type: in vivo, Avena fatua; settings: 80 g/ha, scored after 3 weeks
Procedure, shortened: as §2

ALOMY = assay: Pre-emergence herbicidal action; assay type: in vivo, Alopecurus myosuroides; settings: 80 g/ha, scored after 3 weeks
Procedure, shortened: as §2

ORYZA [12] = assay: Post-emergence damage to crop plants; assay type: in vivo, Oryza sativa; settings: 80 g a.i./ha, comparative experiment
Method: as §4, with “percent. In the experiments that follow, the herbicidal action of the compounds of the invention and that of the corresponding known racemic compounds closest from WO2012126932 and WO2018202535 were compared under the above-specified conditions by the pre-emergence and post-emergence method. The example numbers given in the tables relate to the compounds disclosed in the respective documents.” for “percent.”

TRZAS [13] = assay: Pre-emergence damage to crop plants; assay type: in vivo, Triticum aestiva; settings: 80 g a.i./ha, comparative experiment
From the text: as §6, with “percent. In the experiments that follow, the herbicidal action of the compounds of the invention and that of the corresponding known racemic compounds closest from WO2012126932 and WO2018202535 were compared under the above-specified conditions by the pre-emergence and post-emergence method. The example numbers given in the tables relate to the compounds disclosed in the respective documents.” for “percent.”

PHBPU [14] = assay: Post-emergence herbicidal action; assay type: in vivo, Pharbitis purpurea; settings: assessed after about 3 weeks
Method: as §4

VIOTR [15] = assay: Post-emergence herbicidal action; assay type: in vivo, Viola tricolor; settings: assessed after about 3 weeks
Method: as §4, with “percent. In the experiments that follow, the herbicidal action of the compounds of the invention and that of the corresponding known racemic compounds closest from WO2012126932 and WO2018202535 were compared under the above-specified conditions by the pre-emergence and post-emergence method. The example numbers given in the tables relate to the compounds disclosed in the respective documents.” for “percent.”

AMARE [16] = assay: Pre-emergence herbicidal action; assay type: in vivo, Amaranthus retroflexus; settings: scored after 3 weeks
Procedure, shortened: as §5

POLCO [17] = assay: Post-emergence herbicidal action; assay type: in vivo, Polygonum convolvulus; settings: 20 g/ha, assessed after about 3 weeks
Method: as §4

ORYZA [18] = assay: Pre-emergence damage to crop plants; assay type: in vivo, Oryza sativa; settings: 80 g a.i./ha, comparative experiment
From the text: as §6, with “percent. In the experiments that follow, the herbicidal action of the compounds of the invention and that of the corresponding known racemic compounds closest from WO2012126932 and WO2018202535 were compared under the above-specified conditions by the pre-emergence and post-emergence method. The example numbers given in the tables relate to the compounds disclosed in the respective documents.” for “percent.”

SETVI [19] = assay: Post-emergence herbicidal action; assay type: in vivo, Setaria viridis; settings: assessed after about 3 weeks
Procedure, shortened: as §3

TRZAS [20] = assay: Post-emergence damage to crop plants; assay type: in vivo, Triticum aestiva; settings: 80 g a.i./ha, comparative experiment
Procedure, shortened: as §3

POLCO [21] = assay: Pre-emergence herbicidal action; assay type: in vivo, Polygonum convolvulus; settings: 80 g/ha, scored after 3 weeks
Procedure, shortened: as §2

VIOTR [22] = assay: Pre-emergence herbicidal action; assay type: in vivo, Viola tricolor; settings: scored after 3 weeks
Procedure, shortened: as §5

In the case of `C[S+]([O-])c1c(C(F)(F)F)ccc(C(=O)Nc2nnco2)c1Cl` (stereo in doubt) [Example I-1, 2-chloro-N-(1,3,4-oxadiazol-2-yl)-3-[(S)-methylsulfinyl]-4-(trifluoromethyl)benzamide], the “Post-emergence action against MATIN” value (MATIN [1]; 5 g/ha) is reported as 80%, the “Post-emergence action against MATIN” value (MATIN [1]; 20 g/ha) is reported as 90% and the “Post-emergence action against AMARE” value (AMARE [2]; 1.25 g/ha) is reported as 100%. For the same molecule, the “Post-emergence action against AMARE” value (AMARE [2]; 5 g/ha) was 100%, the “Post-emergence action against AMARE” value (AMARE [2]; 20 g/ha) was 100% and the “Pre-emergence action against SETVI” value (SETVI [3]; 20 g/ha) was 80%. For the same molecule, the “Pre-emergence action against SETVI” value (SETVI [3]; 80 g/ha) was 100%, the “Post-emergence action against ECHCG” value (ECHCG [4]; 5 g/ha) was 100% and the “Post-emergence action against ECHCG” value (ECHCG [4]; 20 g/ha) was 100%. The “Post-emergence action against VERPE” value (VERPE) was 90%, the “Pre-emergence action against MATIN” value (MATIN [5]; 20 g/ha) was 100% and the “Pre-emergence action against MATIN” value (MATIN [5]; 80 g/ha) was 100%. For the same molecule, the “Post-emergence action against AVEFA” value (AVEFA [6]) was 80%, the “Damage to ZEAMX” value (ZEAMX [7]) was 0% and the “Pre-emergence action against ECHCG” value (ECHCG [8]; 5 g/ha) was 90%. The “Pre-emergence action against ECHCG” value (ECHCG [8]; 20 g/ha) was 100%, the “Pre-emergence action against ECHCG” value (ECHCG [8]; 80 g/ha) was 100% and the “Pre-emergence action against PHBPU” value (PHBPU [9]) was 100%. For the same molecule, the “Damage to ZEAMX” value (ZEAMX [10]) was 0%, the “Pre-emergence action against AVEFA” value (AVEFA [11]) was 80% and the “Pre-emergence action against ALOMY” value (ALOMY) was 80%. For the same molecule, the “Damage to ORYZA” value (ORYZA [12]) was 70%, the “Damage to TRZAS” value (TRZAS [13]) was 30% and the “Post-emergence action against PHBPU” value (PHBPU [14]; 5 g/ha) was 100%. For the same molecule, the “Post-emergence action against PHBPU” value (PHBPU [14]; 20 g/ha) was 100%, the “Post-emergence action against VIOTR” value (VIOTR [15]; 1.25 g/ha) was 90% and the “Post-emergence action against VIOTR” value (VIOTR [15]; 5 g/ha) was 100%. The “Post-emergence action against VIOTR” value (VIOTR [15]; 20 g/ha) was 100%, the “Pre-emergence action against AMARE” value (AMARE [16]; 20 g/ha) was 100% and the “Pre-emergence action against AMARE” value (AMARE [16]; 80 g/ha) was 100%. For the same molecule, the “Post-emergence action against POLCO” value (POLCO [17]) was 80%, the “Damage to ORYZA” value (ORYZA [18]) was 80% and the “Post-emergence action against SETVI” value (SETVI [19]; 5 g/ha) was 80%. For the same molecule, the “Post-emergence action against SETVI” value (SETVI [19]; 20 g/ha) was 100%, the “Damage to TRZAS” value (TRZAS [20]) was 60% and the “Pre-emergence action against POLCO” value (POLCO [21]) was 80%. For the same molecule, the “Pre-emergence action against VIOTR” value (VIOTR [22]; 20 g/ha) was 100% and the “Pre-emergence action against VIOTR” value (VIOTR [22]; 80 g/ha) was 100%.

Source: patent publication US20240174624A1, “CHIRAL N-(1,3,4-OXADIAZOLE-2-YL)PHENYL CARBOXYLIC ACID AMIDES AND THEIR USE AS HERBICIDES” (Bayer Aktiengesellschaft, priority 2021, published 2024)
